System: Unknown protein yeast genes
Assay: DNA chip mRNA expression in yeast, unknown protein yeast genes (Table 1)
Assay type: cell-based, Saccharomyces cerevisiae S288C
Summary of the method: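 Ratios compare mRNA levels in stressed and control S. cerevisiae. Each toxicant was applied for two hours to log-phase cultures at 25° C. at a sub-lethal, growth-inhibiting level; fluorescent cDNA (Cy3- or Cy5-dUTP) was hybridized to a genome-wide yeast chip for over 12 h at 65° C.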

Na2As [(1)]
The level of expressed mRNA in the presence of chemical substance/The level of expressed mRNA in the absence of chemical substance (yeast gene YAL053W, incubated two hours with chemical substance): 0.9 | The level of expressed mRNA in the presence of chemical substance/The level of expressed mRNA in the absence of chemical substance (yeast gene YBL048W): 2.0 | The level of expressed mRNA in the presence of chemical substance/The level of expressed mRNA in the absence of chemical substance (yeast gene YBL107C): 1.4 | The level of expressed mRNA in the presence of chemical substance/The level of expressed mRNA in the absence of chemical substance (yeast gene YDL072C, incubated two hours with chemical substance): 1.3 | The level of expressed mRNA in the presence of chemical substance/The level of expressed mRNA in the absence of chemical substance (yeast gene YDL204W, incubated two hours with chemical substance): 1.4 | The level of expressed mRNA in the presence of chemical substance/The level of expressed mRNA in the absence of chemical substance (yeast gene YDL222C, incubated two hours with chemical substance): 0.9 | The level of expressed mRNA in the presence of chemical substance/The level of expressed mRNA in the absence of chemical substance (yeast gene YDR330W, incubated two hours with chemical substance): 0.8 | The level of expressed mRNA in the presence of chemical substance/The level of expressed mRNA in the absence of chemical substance (yeast gene YDR411C, incubated two hours with chemical substance): 0.9 | The level of expressed mRNA in the presence of chemical substance/The level of expressed mRNA in the absence of chemical substance (yeast gene YDR511W, incubated two hours with chemical substance): 1.3 | The level of expressed mRNA in the presence of chemical substance/The level of expressed mRNA in the absence of chemical substance (yeast gene YDR545W, incubated two hours with chemical substance): 0.6 | The level of expressed mRNA in the presence of chemical substance/The level of expressed mRNA in the absence of chemical substance (yeast gene YEL001C, incubated two hours with chemical substance): 1.0 | The level of expressed mRNA in the presence of chemical substance/The level of expressed mRNA in the absence of chemical substance (yeast gene YER004W, incubated two hours with chemical substance): 1.0 | The level of expressed mRNA in the presence of chemical substance/The level of expressed mRNA in the absence of chemical substance (yeast gene YER035W, incubated two hours with chemical substance): 1.4 | The level of expressed mRNA in the presence of chemical substance/The level of expressed mRNA in the absence of chemical substance (yeast gene YER079W, incubated two hours with chemical substance): 1.1 | The level of expressed mRNA in the presence of chemical substance/The level of expressed mRNA in the absence of chemical substance (yeast gene YER106W, incubated two hours with chemical substance): 1.3 | The level of expressed mRNA in the presence of chemical substance/The level of expressed mRNA in the absence of chemical substance (yeast gene YER158C, incubated two hours with chemical substance): 1.2 | The level of expressed mRNA in the presence of chemical substance/The level of expressed mRNA in the absence of chemical substance (yeast gene YER163C, incubated two hours with chemical substance): 1.1 | The level of expressed mRNA in the presence of chemical substance/The level of expressed mRNA in the absence of chemical substance (yeast gene YER175C, incubated two hours with chemical substance): 0.9 | The level of expressed mRNA in the presence of chemical substance/The level of expressed mRNA in the absence of chemical substance (yeast gene YFL006W, incubated two hours with chemical substance): 0.8 | The level of expressed mRNA in the presence of chemical substance/The level of expressed mRNA in the absence of chemical substance (yeast gene YFL010C, incubated two hours with chemical substance): 1.0 | The level of expressed mRNA in the presence of chemical substance/The level of expressed mRNA in the absence of chemical substance (yeast gene YFL024C): 1.0 | The level of expressed mRNA in the presence of chemical substance/The level of expressed mRNA in the absence of chemical substance (yeast gene YFL032W, incubated two hours with chemical substance): 0.4 | The level of expressed mRNA in the presence of chemical substance/The level of expressed mRNA in the absence of chemical substance (yeast gene YGL037C, incubated two hours with chemical substance): 1.5 | The level of expressed mRNA in the presence of chemical substance/The level of expressed mRNA in the absence of chemical substance (yeast gene YGL047W, incubated two hours with chemical substance): 1.0 | The level of expressed mRNA in the presence of chemical substance/The level of expressed mRNA in the absence of chemical substance (yeast gene YGL053W, incubated two hours with chemical substance): 1.5 | The level of expressed mRNA in the presence of chemical substance/The level of expressed mRNA in the absence of chemical substance (yeast gene YGL121C): 2.6 | The level of expressed mRNA in the presence of chemical substance/The level of expressed mRNA in the absence of chemical substance (yeast gene YGL199C, incubated two hours with chemical substance): 1.1 | The level of expressed mRNA in the presence of chemical substance/The level of expressed mRNA in the absence of chemical substance (yeast gene YGR101W, incubated two hours with chemical substance): 1.0 | The level of expressed mRNA in the presence of chemical substance/The level of expressed mRNA in the absence of chemical substance (yeast gene YGR110W): 1.6 | The level of expressed mRNA in the presence of chemical substance/The level of expressed mRNA in the absence of chemical substance (yeast gene YGR130C, incubated two hours with chemical substance): 0.9 | The level of expressed mRNA in the presence of chemical substance/The level of expressed mRNA in the absence of chemical substance (yeast gene YGR154C, incubated two hours with chemical substance): 1.8 | The level of expressed mRNA in the presence of chemical substance/The level of expressed mRNA in the absence of chemical substance (yeast gene YGR221C, incubated two hours with chemical substance): 0.9 | The level of expressed mRNA in the presence of chemical substance/The level of expressed mRNA in the absence of chemical substance (yeast gene YHR138C, incubated two hours with chemical substance): 2.8 | The level of expressed mRNA in the presence of chemical substance/The level of expressed mRNA in the absence of chemical substance (yeast gene YHR199C, incubated two hours with chemical substance): 1.9 | The level of expressed mRNA in the presence of chemical substance/The level of expressed mRNA in the absence of chemical substance (yeast gene YIL023C, incubated two hours with chemical substance): 1.1 | The level of expressed mRNA in the presence of chemical substance/The level of expressed mRNA in the absence of chemical substance (yeast gene YIL041W, incubated two hours with chemical substance): 1.0 | The level of expressed mRNA in the presence of chemical substance/The level of expressed mRNA in the absence of chemical substance (yeast gene YIL087C, incubated two hours with chemical substance): 1.3 | The level of expressed mRNA in the presence of chemical substance/The level of expressed mRNA in the absence of chemical substance (yeast gene YJL057C, incubated two hours with chemical substance): 1.5 | The level of expressed mRNA in the presence of chemical substance/The level of expressed mRNA in the absence of chemical substance (yeast gene YJL066C, incubated two hours with chemical substance): 0.9 | The level of expressed mRNA in the presence of chemical substance/The level of expressed mRNA in the absence of chemical substance (yeast gene YJL082W, incubated two hours with chemical substance): 1.4 | The level of expressed mRNA in the presence of chemical substance/The level of expressed mRNA in the absence of chemical substance (yeast gene YJL151C, incubated two hours with chemical substance): 1.0 | The level of expressed mRNA in the presence of chemical substance/The level of expressed mRNA in the absence of chemical substance (yeast gene YJL152W, incubated two hours with chemical substance): 0.9 | The level of expressed mRNA in the presence of chemical substance/The level of expressed mRNA in the absence of chemical substance (yeast gene YJL161W, incubated two hours with chemical substance): 1.7 | The level of expressed mRNA in the presence of chemical substance/The level of expressed mRNA in the absence of chemical substance (yeast gene YJL171C, incubated two hours with chemical substance): 2.3 | The level of expressed mRNA in the presence of chemical substance/The level of expressed mRNA in the absence of chemical substance (yeast gene YJR008W, incubated two hours with chemical substance): 1.6 | The level of expressed mRNA in the presence of chemical substance/The level of expressed mRNA in the absence of chemical substance (yeast gene YJR054W, incubated two hours with chemical substance): 0.8 | The level of expressed mRNA in the presence of chemical substance/The level of expressed mRNA in the absence of chemical substance (yeast gene YKL071W): 8.3 | The level of expressed mRNA in the presence of chemical substance/The level of expressed mRNA in the absence of chemical substance (yeast gene YKL086W, incubated two hours with chemical substance): 1.0 | The level of expressed mRNA in the presence of chemical substance/The level of expressed mRNA in the absence of chemical substance (yeast gene YKL151C, incubated two hours with chemical substance): 1.2 | The level of expressed mRNA in the presence of chemical substance/The level of expressed mRNA in the absence of chemical substance (yeast gene YKL153W, incubated two hours with chemical substance): 1.1

— patent US8192962B2, “Processes for detecting toxic substances” (Daikin Industries, Ltd., priority 2001, dated 2012)
